Earlier results, collected in PubChem BioAssay AID1259409 (Chemical Carcinogenesis Research Information System (CCRIS), 2018).

Tested on: rodent chemically induced tumor inhibition, incidence and multiplicity
Assay: CCRIS tumor inhibitor studies
Settings: Route [Inhibitor]: ORAL, Promoter: NONE USED; for outcome: Target Tissue: Type of Lesion: GALLBLADDER: CARCINOMA IN SITU

**Q.** Which results are given for `O=[Se](O)O`?
**A.** tumour outcome (control, treated, inhibition, significance) (Carcinogen: 1,2-DIMETHYLHYDRAZINE, 540-73-8, Dose [Inhibitor]: 0, 10 MG/L IN DRINKING WATER FOR DURATION OF STUDY BEGINNING 7 D PRIOR TO CARCINOGEN TREATMENT (STUDY DURATION: 8 MO), Species: RAT, Strain/Sex: BD6/MALE, Target Tissue: Type of Lesion: INTESTINE: TUMOR, Dose [Carcinogen]: 20 MG/KG BW 1/WK FOR 20 WK): 100%, 100%, 0%, not significant; tumour outcome (control, treated, inhibition, significance) (Carcinogen: 1,2-DIMETHYLHYDRAZINE, 540-73-8, Dose [Inhibitor]: 4 PPM IN DRINKING WATER DAILY FOR 10-20 WK STARTING AFTER COMPLETION OF CARCINOGEN TREATMENT AND CONTINUING FOR DURATION, Species: RAT, Strain/Sex: SPRAGUE-DAWLEY/MALE, Target Tissue: Type of Lesion: COLON: ADENOCARCINOMA, VILLOUS ADENOMA, Dose [Carcinogen]: 20 MG/KG BW 1/WK FOR 20 WK): 29/32 (91%), 63/69 (91%), 0%, not calculated; tumour outcome (control, treated, inhibition, significance) (Carcinogen: 1,2-DIMETHYLHYDRAZINE, 540-73-8, Dose [Inhibitor]: 4 PPM IN DRINKING WATER DAILY FOR 20 WK STARTING SIMULTANEOUSLY WITH CARCINOGEN TREATMENT AND CONTINUING THROUGH END OF, Species: RAT, Strain/Sex: SPRAGUE-DAWLEY/MALE, Target Tissue: Type of Lesion: COLON: ADENOCARCINOMA, Dose [Carcinogen]: 20 MG/KG BW 1/WK FOR 20 WK): 13/15 (87%), 6/15 (40%), 54%, p 0.025; tumour outcome (control, treated, inhibition, significance) (Carcinogen: 1,2-DIMETHYLHYDRAZINE, 540-73-8, Dose [Inhibitor]: 4 PPM IN DRINKING WATER DAILY STARTING 2 WK PRIOR TO START OF CARCINOGEN TREATMENT AND CONTINUING FOR DURATION OF STUDY, Species: RAT, Strain/Sex: SPRAGUE-DAWLEY/MALE, Target Tissue: Type of Lesion: COLON: ADENOCARCINOMA, Dose [Carcinogen]: 20 MG/KG BW IN BACTERIOSTATIC SALINE 1/WK FOR 20 WK): 9/14 (64%), 4/13 (31%), 52%, not calculated; tumour outcome (control, treated, inhibition, significance) (Carcinogen: 2-(ACETYLAMINO)FLUORENE, 6292-55-3, Dose [Inhibitor]: 4 PPM IN DRINKING WATER DAILY STARTING 1 WK PRIOR TO CARCINOGEN TREATMENT AND CONTINUING FOR DURATION OF STUDY (STUDY DU, Species: RAT, Strain/Sex: SPRAGUE-DAWLEY/MALE, Target Tissue: Type of Lesion: LIVER: CARCINOMA, Dose [Carcinogen]: 0.03% IN DIET DAILY FOR 14 WK): 9/13 (69%), 4/14 (29%), 58%, not calculated; tumour outcome (control, treated, inhibition, significance) (Carcinogen: 3'-METHYL-4-DIMETHYLAMINOAZOBENZENE, 55-80-1, Dose [Inhibitor]: 6 PPM IN DRINKING WATER DAILY STARTING 1 WK PRIOR TO START OF CARCINOGEN TREATMENT AND CONTINUING FOR DURATION OF STUDY, Species: RAT, Strain/Sex: SPRAGUE-DAWLEY/MALE, Target Tissue: Type of Lesion: LIVER: ADENOCARCINOMA, Dose [Carcinogen]: 0.05% IN DIET DAILY FOR 8 WK): 11/12 (92%), 7/15 (46%), 50%, p<0.01; outcome (Carcinogen: 3-METHYLCHOLANTHRENE, 56-49-5, Dose [Inhibitor]: 0, 0.5 PPM IN DRINKING WATER FOR 24 WK BEGINNING 4 WK PRIOR TO CARCINOGEN TREATMENT (STUDY DURATION: 24 WK), Species: HAMSTER, Strain/Sex: SYRIAN/FEMALE, Dose [Carcinogen]: 3 MG IN BEESWAX PELLET INSERTED INTO GALLBLADDER AT WK 4 OF STUDY): 0/24 (0%), 3/20 (15%), -100%, not significant; tumour outcome (control, treated, inhibition, significance) (Carcinogen: 3-METHYLCHOLANTHRENE, 56-49-5, Dose [Inhibitor]: 0, 0.5 PPM IN DRINKING WATER FOR 24 WK BEGINNING 4 WK PRIOR TO CARCINOGEN TREATMENT (STUDY DURATION: 24 WK), Species: HAMSTER, Strain/Sex: SYRIAN/FEMALE, Target Tissue: Type of Lesion: GALLBLADDER: INVASIVE ADENOCARCINOMA, Dose [Carcinogen]: 3 MG IN BEESWAX PELLET INSERTED INTO GALLBLADDER AT WK 4 OF STUDY): 21/24 (88%), 11/20 (55%), 38%, p<0.05; outcome (Carcinogen: 3-METHYLCHOLANTHRENE, 56-49-5, Dose [Inhibitor]: 0, 2 PPM IN DRINKING WATER FOR 24 WK BEGINNING 4 WK PRIOR TO CARCINOGEN TREATMENT (STUDY DURATION: 24 WK), Species: HAMSTER, Strain/Sex: SYRIAN/FEMALE, Dose [Carcinogen]: 3 MG IN BEESWAX PELLET INSERTED INTO GALLBLADDER AT WK 4 OF STUDY): 0/24 (0%), 7/21 (33%), -100%, p<0.05; tumour outcome (control, treated, inhibition, significance) (Carcinogen: 3-METHYLCHOLANTHRENE, 56-49-5, Dose [Inhibitor]: 0, 2 PPM IN DRINKING WATER FOR 24 WK BEGINNING 4 WK PRIOR TO CARCINOGEN TREATMENT (STUDY DURATION: 24 WK), Species: HAMSTER, Strain/Sex: SYRIAN/FEMALE, Target Tissue: Type of Lesion: GALLBLADDER: INVASIVE ADENOCARCINOMA, Dose [Carcinogen]: 3 MG IN BEESWAX PELLET INSERTED INTO GALLBLADDER AT WK 4 OF STUDY): 21/24 (88%), 10/21 (48%), 45%, p<0.05; tumour outcome (control, treated, inhibition, significance) (Carcinogen: 3-METHYLCHOLANTHRENE, 56-49-5, Dose [Inhibitor]: 0, 2 UG/G/BW 2/WK FOR 20 WK (STUDY DURATION: 20 WK), Species: MOUSE, Strain/Sex: ICRC/MALE, Target Tissue: Type of Lesion: SKIN: PAPILLOMA, Dose [Carcinogen]: 50 UG IN 0.2 ML ACETONE 2/WK): 100%, 100%, 0%, not significant; outcome (Carcinogen: 3-METHYLCHOLANTHRENE, 56-49-5, Dose [Inhibitor]: 0, 4 PPM IN DRINKING WATER FOR 24 WK BEGINNING 4 WK PRIOR TO CARCINOGEN TREATMENT (STUDY DURATION: 24 WK), Species: HAMSTER, Strain/Sex: SYRIAN/FEMALE, Dose [Carcinogen]: 3 MG IN BEESWAX PELLET INSERTED INTO GALLBLADDER AT WK 4 OF STUDY): 0/24 (0%), 5/22 (23%), -100%, p<0.05; tumour outcome (control, treated, inhibition, significance) (Carcinogen: 3-METHYLCHOLANTHRENE, 56-49-5, Dose [Inhibitor]: 0, 4 PPM IN DRINKING WATER FOR 24 WK BEGINNING 4 WK PRIOR TO CARCINOGEN TREATMENT (STUDY DURATION: 24 WK), Species: HAMSTER, Strain/Sex: SYRIAN/FEMALE, Target Tissue: Type of Lesion: GALLBLADDER: INVASIVE ADENOCARCINOMA, Dose [Carcinogen]: 3 MG IN BEESWAX PELLET INSERTED INTO GALLBLADDER AT WK 4 OF STUDY): 21/24 (88%), 12/22 (55%), 38%, p<0.05; tumour outcome (control, treated, inhibition, significance) (Carcinogen: 4-(METHYLNITROSAMINO)-1-(3-PYRIDYL)-1-BUTANONE, 64091-91-4, Dose [Inhibitor]: 0, 0.0022 G/KG DIET (0.00008 UMOL/D) BEGINNING 2 WK PRIOR TO CARCINOGEN DOSE AND CONTINUING FOR DURATION OF STUDY (STUDY, Species: MOUSE, Strain/Sex: STRAIN-A/FEMALE, Target Tissue: Type of Lesion: LUNG: ADENOMA, Dose [Carcinogen]: 9.2, 9.1 MG/MOUSE IN DRINKING WATER DURING 7 WK): 28/28 (100%), 24/25 (96%), 4%, not significant; tumour outcome (control, treated, inhibition, significance) (Carcinogen: 4-(METHYLNITROSAMINO)-1-(3-PYRIDYL)-1-BUTANONE, 64091-91-4, Dose [Inhibitor]: 0, 5 PPM IN DIET BEGINNING 1 WK PRIOR TO CARCINOGEN TREATMENT AND CONTINUING FOR 16 WK POST CARCINOGEN TREATMENT (STUDY, Species: MOUSE, Strain/Sex: STRAIN-A/FEMALE, Target Tissue: Type of Lesion: LUNG: ADENOMA, Dose [Carcinogen]: 10 UMOL IN 0.1 ML SALINE): 100%, 100%, 0%, not significant
